Experiment: Clinical infusion system compatibility
Type: physicochemical
Procedure: The testing procedure can be summarized as follows: • 1. […] The tested infusion system was attached to the infusion bag and manually filled with solution from the infusion bag. Approximately 1 mL (triplicates) of the testing solution was collected as an end-of-line sample for analysis (t0, eol). • 4. The testing infusion system was shut off, and stored at ambient conditions until the next time point. […] B Braun, Rate Flow® regulator IV set). […] The infusion systems were then attached to the infusion bag and manually filled with solution from the infusion bag. Aliquots were collected as an end-of-line sample for analysis (t0, eol). The IV lines were closed between time points with the infusate resting within the infusion system and stored at ambient temperature. At testing time points, approximately 17 mL (approx. volume of the IV system) of infusate solution were drained, which led to a replacement of the solution in the IV system from the bag reservoir. Following this replacement, another end-of-line sample was collected for the assessments (t10 min, eol, t3 h, eol, and t6 h, eol). The samples were evaluated for appearance, pH, and brincidofovir recovery.

[1] = B. Braun, 0.1 mg/mL, t10 min, eol
[2] = B. Braun, 1.0 mg/mL, t10 min, eol
[3] = Baxter, 0.1 mg/mL, t10 min, eol
[4] = Baxter, 1.0 mg/mL, t10 min, eol

For CCCCCCCCCCCCCCCCOCCCOP(=O)(O)CO[C@H](CO)Cn1ccc(N)nc1=O [Brincidofovir], the Appearance (B. Braun, 0.1 mg/mL, t0, bag) was “Clear, colorless”, the “Measured pH” value (B. Braun, 0.1 mg/mL, t0, bag) was 7.8 and the “Observed c(BCV)” value (B. Braun, 0.1 mg/mL, t0, bag) was 0.091 mg/mL. The Appearance (B. Braun, 0.1 mg/mL, t0, eol) was “Clear, colorless”, the “Measured pH” value (B. Braun, 0.1 mg/mL, t0, eol) was 7.7 and the “Observed c(BCV)” value (B. Braun, 0.1 mg/mL, t0, eol) was 0.086 mg/mL. For the same molecule, the Appearance [1] was “Clear, colorless”, the “Measured pH” value [1] was 7.7 and the “Observed c(BCV)” value [1] was 0.091 mg/mL. For the same molecule, the Appearance (B. Braun, 0.1 mg/mL, t3 h, eol) was “Clear, colorless”, the “Measured pH” value (B. Braun, 0.1 mg/mL, t3 h, eol) was 7.7 and the “Observed c(BCV)” value (B. Braun, 0.1 mg/mL, t3 h, eol) was 0.090 mg/mL. For the same molecule, the Appearance (B. Braun, 0.1 mg/mL, t6 h, eol) was “Clear, colorless”, the “Measured pH” value (B. Braun, 0.1 mg/mL, t6 h, eol) was 7.7 and the “Observed c(BCV)” value (B. Braun, 0.1 mg/mL, t6 h, eol) was 0.091 mg/mL. The “Observed c(BCV)” value (B. Braun, 0.1 mg/mL, t−24 h, bag) was 0.090 mg/mL, the Appearance (B. Braun, 1.0 mg/mL, t0, bag) was “Clear, colorless” and the “Measured pH” value (B. Braun, 1.0 mg/mL, t0, bag) was 8.1. The “Observed c(BCV)” value (B. Braun, 1.0 mg/mL, t0, bag) was 0.86 mg/mL, the Appearance (B. Braun, 1.0 mg/mL, t0, eol) was “Clear, colorless” and the “Measured pH” value (B. Braun, 1.0 mg/mL, t0, eol) was 8.1. For the same molecule, the “Observed c(BCV)” value (B. Braun, 1.0 mg/mL, t0, eol) was 0.86 mg/mL, the Appearance [2] was “Clear, colorless” and the “Measured pH” value [2] was 8.1. The “Observed c(BCV)” value [2] was 0.86 mg/mL, the Appearance (B. Braun, 1.0 mg/mL, t3 h, eol) was “Clear, colorless” and the “Measured pH” value (B. Braun, 1.0 mg/mL, t3 h, eol) was 8.1. For the same molecule, the “Observed c(BCV)” value (B. Braun, 1.0 mg/mL, t3 h, eol) was 0.86 mg/mL, the Appearance (B. Braun, 1.0 mg/mL, t6 h, eol) was “Clear, colorless” and the “Measured pH” value (B. Braun, 1.0 mg/mL, t6 h, eol) was 8.1. The “Observed c(BCV)” value (B. Braun, 1.0 mg/mL, t6 h, eol) was 0.86 mg/mL, the “Observed c(BCV)” value (B. Braun, 1.0 mg/mL, t−24 h, bag) was 0.86 mg/mL and the Appearance (Baxter, 0.1 mg/mL, t0, bag) was “Clear, colorless”. For the same molecule, the “Measured pH” value (Baxter, 0.1 mg/mL, t0, bag) was 7.7, the “Observed c(BCV)” value (Baxter, 0.1 mg/mL, t0, bag) was 0.091 mg/mL and the Appearance (Baxter, 0.1 mg/mL, t0, eol) was “Clear, colorless”. The “Measured pH” value (Baxter, 0.1 mg/mL, t0, eol) was 7.7, the “Observed c(BCV)” value (Baxter, 0.1 mg/mL, t0, eol) was 0.088 mg/mL and the Appearance [3] was “Clear, colorless”. For the same molecule, the “Measured pH” value [3] was 7.7, the “Observed c(BCV)” value [3] was 0.092 mg/mL and the Appearance (Baxter, 0.1 mg/mL, t3 h, eol) was “Clear, colorless”. The “Measured pH” value (Baxter, 0.1 mg/mL, t3 h, eol) was 7.7, the “Observed c(BCV)” value (Baxter, 0.1 mg/mL, t3 h, eol) was 0.091 mg/mL and the Appearance (Baxter, 0.1 mg/mL, t6 h, eol) was “Clear, colorless”. The “Measured pH” value (Baxter, 0.1 mg/mL, t6 h, eol) was 7.7, the “Observed c(BCV)” value (Baxter, 0.1 mg/mL, t6 h, eol) was 0.092 mg/mL and the “Observed c(BCV)” value (Baxter, 0.1 mg/mL, t−24 h, bag) was 0.090 mg/mL. The Appearance (Baxter, 1.0 mg/mL, t0, bag) was “Clear, colorless”, the “Measured pH” value (Baxter, 1.0 mg/mL, t0, bag) was 8.1 and the “Observed c(BCV)” value (Baxter, 1.0 mg/mL, t0, bag) was 0.86 mg/mL. For the same molecule, the Appearance (Baxter, 1.0 mg/mL, t0, eol) was “Clear, colorless”, the “Measured pH” value (Baxter, 1.0 mg/mL, t0, eol) was 8.1 and the “Observed c(BCV)” value (Baxter, 1.0 mg/mL, t0, eol) was 0.85 mg/mL. The Appearance [4] was “Clear, colorless”, the “Measured pH” value [4] was 8.1 and the “Observed c(BCV)” value [4] was 0.86 mg/mL. For the same molecule, the Appearance (Baxter, 1.0 mg/mL, t3 h, eol) was “Clear, colorless”, the “Measured pH” value (Baxter, 1.0 mg/mL, t3 h, eol) was 8.1 and the “Observed c(BCV)” value (Baxter, 1.0 mg/mL, t3 h, eol) was 0.86 mg/mL. The Appearance (Baxter, 1.0 mg/mL, t6 h, eol) was “Clear, colorless”, the “Measured pH” value (Baxter, 1.0 mg/mL, t6 h, eol) was 8.1 and the “Observed c(BCV)” value (Baxter, 1.0 mg/mL, t6 h, eol) was 0.86 mg/mL. For the same molecule, the “Observed c(BCV)” value (Baxter, 1.0 mg/mL, t−24 h, bag) was 0.85 mg/mL.

— patent publication US20170368082A1, “FORMULATIONS OF BRINCIDOFOVIR” (priority 2016, published 2017)
